Reference: US20140351963A1, “MiRNAs Useful to Reduce Lung Cancer Tumorigenesis and Chemotherapy Resistance and Related Compositions and Methods” (Ohio State Innovation Foundation, priority 2011, published 2014)

What was measured:
[1] = test system: Calu-1 cells; assay: Cell viability (MTS) and caspase 3/7 assays with gefitinib; format: cell-based, human; settings: for Gefitinib sensitivity of transfected cells (caspase-3/7 and viability assays): Calu-1
Experimental: (§1) For detection of caspase 3/7 activity, cells were cultured in 96-well plates, in triplicate, treated with 5 μM, 10 μM or 15 μM gefitinig and analyzed using a Caspase-Glo 3/7 Assay kit (Promega) according to the manufacturer's instructions. Continuous variables are expressed as means±s.d. Cell viability was examined with 3-(4,5dimethylthiazol-2-yl)-2,5-dipheniltetrazolium bromide (MTS)-Cell Titer 96 AQueous One Solution Cell Proliferation Assay (Promega) according to the manufacturer's protocol. Metabolically active cells were detected by adding 20 μl of MTS to each well. After 1 h of incubation, the plates were analyzed in a Multilabel Counter (Bio-Rad Laboratories).

[2] = test system: miR-30b, miR-30c, miR-221 and miR-222; assay: qRT-PCR of miRNA expression after drug treatment; format: cell-based, human; settings: for miR-30b, miR-30c, miR-221 and miR-222 expression after gefitinib: 5 μM or 10 μM gefitinib; for miR-221, miR-222, miR-30b and miR-30c expression after gefitinib: 10 μM gefitinib, 24 h
Experimental: (§2) Real-time PCR was performed using a standard TaqMan PCR Kit protocol on an Applied Biosystems 7900HT Sequence Detection System (Applied Biosystems). The 10 pl PCR reaction included 0.67 pl RT product, 1 pl TaqMan Universal PCR Master Mix (Applied Biosystems), […]. The reactions were incubated in a 96-well plate at 95° C. for […], followed by 40 cycles of 95° C. for 15 s and 60° C. for 1 mM All reactions were run in triplicate. The threshold cycle (CT) is defined as the fractional cycle number at which the fluorescence passes the fixed threshold. The comparative CT method for relative quantization of gene expression (Applied Biosystems) was used to determine miRNA and genes expression levels. The y axis represents the 2^(−ΔCT), or the relative expression of the different miRs and genes. MiRs expression was calculated relative to U44 and U48 rRNA (for microRNAs) and to GAPDH (for genes). Experiments were carried out in triplicate for each data point, and data analysis was performed by using software (Bio-Rad).

[3] = test system: miR-103 and miR-203; assay: qRT-PCR of miRNA expression after drug treatment; format: cell-based, human; settings: Calu-1; 1 and 3 μM, 24, 48 and 72 h; P<0.05
Experimental: as §2

[4] = test system: NSCLCs; assay: Transwell migration assay; format: cell-based; settings: 24 h
Experimental: Transwell insert chambers with an 8-μm porous membrane (Greiner Bio One) were used for the assay. Cells were washed three times with PBS and added to the top chamber in serum-free medium. The bottom chamber was filled with medium containing 10% FBS. Cells were incubated for 24 h at 37° C. in a 5% CO2 humidified incubator. To quantify migrating cells, cells in the top chamber were removed by using a cotton-tipped swab, and the migrated cells were fixed in PBS, 25% glutaraldehyde and stained with crystal violet stain, visualized under a phase-contrast microscope and photographed. Crystalviolet-stained cells were then solubilized in acetic acid and methanol (1:1), and absorbance was measured at 595 nm.

[5] = test system: AKT/ERKs pathways; assay: Western blot of AKT/ERKs pathways after miRNA enforced expression; format: cell-based; settings: A549; miRNA overexpression
Experimental: (§3) Total proteins from NSCLC were extracted with radioimmunoprecipitation assay (PIRA) buffer ([…], pH 7.5, 1% Triton, 0.1% SDS, 0.1% sodium deoxycholate and 1% Nonidet P40). Sample extract (50 μg) was resolved on 7.5-12% SDS-polyacriylamide gels (PAGS) using a mini-gel apparatus (Bio-Rad Laboratories) and transferred to Hybond-C extra nitrocellulose. Membranes were blocked for 1 h with 5% nonfat dry milk in Tris-buffered saline containing 0.05% Tween 20, incubated overnight with primary antibody, washed and incubated with secondary antibody, and visualized by chemiluminescence.
(§4) The following primary antibodies were used: Apaf-1, Snail, Slug (abcam), Src, Met, Dicer, Vimintin, E-cadherin, Zeb1, Zeb-2 (Santa Cruz), Bim, pErks, total Erks, pAkt, total Akt, GAPDH, Parp (cell signaling, Pkc-ε, (BD transduction lab), β-actin antibody, Fibronectin (Sigma). A secondary anti-rabbit or anti-mouse immunoglobulin G (IgG) antibody peroxidase conjugate (Chemicon) was used.

[6] = test system: Calu-1 cells; assay: Cell-cycle analysis by flow cytometry; format: cell-based, human
Experimental: (§5) For cell-cycle analysis, cells were plated in 6 cm dishes, transfected as indicated in the figures, trypsinized, washed in PBS, and fixed with ice-cold 70% ethanol while vortexing. Cells were rehydrated in PBS and stained 30 min at RT with propidium iodide ([…] PI, 0.5 mg/ml RNase in PBS) prior to flow-cytometric analysis. Every experiment was repeated 5 times independently, with two replicas for each sample.

[7] = test system: A549 cells; assay: Cell-cycle analysis by flow cytometry; format: cell-based
Experimental: as §5

[8] = test system: mesenchymal markers and E-cadherin; assay: Expression of epithelial and mesenchymal markers (immunofluorescence, immunoblot, qRT-PCR); format: cell-based, human; settings: Calu-1
Experimental: Cells were grown on Lab-Tek II CC2 chamber slides (Nunc), fixed with 4% paraformaldehyde and permeabilized with 0.2% Triton X-100/PBS before blocking with 10% sheep serum (Caltag Laboratories). All the primary antibodies were from Abcam. Secondary antibodies were goat antibodies to mouse or rabbit coupled to Alexa 488 (Invitrogen). F-actin was stained by using a phalloidin reagent (Invitrogen). Cell nuclei were visualized with DAPI (Sigma). Slides were mounted with SlowFade Gold Antifade reagent (Invitrogen).
as §3, §2

[9] = test system: PKC-ε and SRC; assay: Western blot of PKC-ε and SRC protein; format: cell-based, human
Experimental: as §3, §4

[10] = test system: Dicer; assay: Western blot of Dicer; format: cell-based; settings: Calu-1
Experimental: as §3, §4

[11] = test system: A549 cells; assay: A549 xenograft in nude mice with gefitinib treatment; format: in vivo; settings: for Tumor growth: nude mice injected s.c. with stably infected A549 cells, 35 days; for Sensitivity to gefitinib-induced apoptosis in vivo: nude mice, stably infected A549 cells, gefitinib 200 mg/kg oral gavage, 2 weeks
Experimental: A549 cells were stably infected with a control miRNA, miR-103 and miR-203 or with control inhibitor of miRNA or a lentiviral inhibitor of miR-221 and miR-30c (SBI). We injected 5×10^6 viable cells subcutaneously into the right flanks of 6-week-old male nude mice (Charles River Breeding Laboratories). Treatment was started 7 d after tumor cell inoculation. […] Tumor size was assessed twice per week using a digital caliper. Tumor volumes were determined by measuring the length (1) and the width (w) of the tumor and calculating the volume (V=lw^2/2). We killed the mice 35 days after injection. Statistical significance between the control and treated mice was evaluated using a Student's t test. Mouse experiments were conducted after approval by the institutional animal care and use committee at Ohio State University.
A549 cells were stably infected with the Human pre-microRNA Expression Construct Lenti-miR expression plasmid containing the full-length miR-103, miR-203 or the anti-miR-221, miR-30c and the GFP gene under the control of two different promoters (System Biosciences). An empty vector was used as control. Pre-miRs expression and control constructs were packaged with pPACKH1 Lentivector Packaging Plasmid mix (System Biosciences) in a 293TN packaging cell line. Viruses were concentrated using PEGit Virus Precipitation Solution, and titers were analyzed using the UltraRapid Lentiviral Titer Kit (System Biosciences). Infected cells were selected by FACS analysis (FACScalibur; BD Bioscience). Infection efficiency >90% was verified by fluorescent microscopy and confirmed by real-time PCR for miRs expression.

[12] = test system: PC9 cells; assay: Cell viability (MTS) and caspase 3/7 assays with gefitinib; format: cell-based; settings: PC9 EGFR mutant; even at low doses (0.1 μM), 24 h
Experimental: as §1

[13] = test system: phosphorylated ERKs; assay: Western blot of ERK phosphorylation after gefitinib; format: cell-based; settings: 24 h; for Concentration of phosphorylated ERKs compared to untreated cells: 5 μM or 10 μM gefitinib; for ERKs phosphorylation after gefitinib: 5 or 10 μM gefitinib
Experimental: as §3, §4

[14] = test system: BIM and APAF-1; assay: Western blot of BIM and APAF-1 protein; format: cell-based, human; settings: 24 h; for BIM and APAF-1 protein after gefitinib: 5 μM or 10 μM gefitinib; for APAF-1 and BIM expression after gefitinib: 5 or 10 μM gefitinib
Experimental: as §3, §4

[15] = test system: miR-21, miR-29a, miR-29c and miR-100; assay: qRT-PCR of miRNA expression after drug treatment; format: cell-based, human; settings: 5 and 10 μM gefitinib
Experimental: as §2

[16] = SU11274 treated Calu-1 cells exposed to different concentrations of gefitinib, 24 h

Cc1[nH]c(/C=C2\C(=O)Nc3ccc(S(=O)(=O)N(C)c4cccc(Cl)c4)cc32)c(C)c1C(=O)N1CCN(C)CC1 [SU11274] was tested, and the “Caspase-3/7 activity on exposure to gefitinib” value [1, 16] was “increased”, the “Cell viability on exposure to gefitinib” value [1, 16] was “decreased” and the “miR-30b/c and miR-221/miR-222 expression after SU11274” value ([2]; Calu-1, 1 and 3 μM, 24, 48 and 72 h) was “down-regulation”. For the same compound, the “miR-103 and miR-203 expression after SU11274” value [3] was “increased”.

For “miR-103: synthetic miR-103 or lentiviral construct containing full-length miR-103; targets PKC-ε and Dicer (AGCAGCATTGTACAGGGCTATGA; listed as DNA, chemistry not given here)”, the “Migration reduced compared to controls” value [4] was “about 60%”, the “Phosphorylation of AKT, GSK3β and the ERKs” value [5] was “reduced phosphorylation” and the “Cell cycle distribution (G1 fraction; S and G2-M phases)” value [6] was “increased G1 cell fraction”. For the same compound, the “Cell cycle distribution (G1 fraction; S and G2-M phases)” value [7] was “increased G1 cell fraction”, the E-cadherin expression [8] was “increased” and the “Expression of mesenchymal markers” value [8] was “downregulation”. The “Concentrations of PKC-ε and SRC protein after enforced miRNA expression” value [9] was “clearly reduced”, the Dicer level [10] was “marked down-regulation” and the “Gefitinib sensitivity of transfected cells (caspase-3/7 and viability assays)” value [1] was “increased the sensitivity”. For the same compound, the Tumor growth [11] was “marked inhibition” and the “Sensitivity to gefitinib-induced apoptosis in vivo” value [11] was “increased sensitivity”.

In the case of “miR-203: synthetic miR-203 or lentiviral construct containing full-length miR-203; targets SRC (CTAGTGGTCCTAAACATTTCAC; listed as DNA, chemistry not given here)”, the “Migration reduced compared to controls” value [4] is reported as “about 60%”, the “Phosphorylation of AKT, GSK3β and the ERKs” value [5] is reported as “reduced phosphorylation” and the “Cell cycle distribution (G1 fraction; S and G2-M phases)” value [6] is reported as “increased G1 cell fraction”. The “Cell cycle distribution (G1 fraction; S and G2-M phases)” value [7] was “increased G1 cell fraction”, the E-cadherin expression [8] was “increased” and the “Expression of mesenchymal markers” value [8] was “downregulation”. The “Concentrations of PKC-ε and SRC protein after enforced miRNA expression” value [9] was “clearly reduced”, the “Gefitinib sensitivity of transfected cells (caspase-3/7 and viability assays)” value [1] was “increased the sensitivity” and the Tumor growth [11] was “marked inhibition”. The “Sensitivity to gefitinib-induced apoptosis in vivo” value [11] was “increased sensitivity”.

With COc1cc2ncnc(Nc3ccc(F)c(Cl)c3)c2cc1OCCCN1CCOCC1 [gefitinib] the “Cell growth / viability relative to untreated controls” value [12] was “significantly inhibited”, the “Concentration of phosphorylated ERKs compared to untreated cells” value ([13]; HCC827) was “markedly lower” and the “ERKs phosphorylation after gefitinib” value ([13]; HCC827GR) was “did not change”. The “Concentration of phosphorylated ERKs compared to untreated cells” value ([13]; PC9) was “markedly lower”, the “ERKs phosphorylation after gefitinib” value ([13]; PC9GR) was “did not change” and the “BIM and APAF-1 protein after gefitinib” value ([14]; HCC827) was “increased amounts”. For the same compound, the “APAF-1 and BIM expression after gefitinib” value ([14]; HCC827GR) was “did not change”, the “BIM and APAF-1 protein after gefitinib” value ([14]; PC9) was “increased amounts” and the “APAF-1 and BIM expression after gefitinib” value ([14]; PC9GR) was “did not change”. The “miR-30b, miR-30c, miR-221 and miR-222 expression after gefitinib” value (from here on “miR-30b, miR-30c”) ([2]; A549 gefitinib-resistant) was “does not decrease”, the “miR-30b, miR-30c” value ([2]; Calu-1 gefitinib-resistant) was “does not decrease” and the “miR-30b, miR-30c” value ([2]; HCC827) was “downregulation”. The “miR-221, miR-222, miR-30b and miR-30c expression after gefitinib” value ([2]; HCC827 GR) was “did not decrease”, the “miR-30b, miR-30c” value ([2]; PC9) was “downregulation” and the “miR-221, miR-222, miR-30b and miR-30c expression after gefitinib” value ([2]; PC9 GR) was “did not decrease”. For the same compound, the “miR-21, miR-29a, miR-29c and miR-100 expression after gefitinib” value ([15]; HCC827) was “downregulated”, the “Downregulation of miR-21, miR-29a, miR-29c and miR-100 after gefitinib” value ([15]; HCC827 GR) was “not observed” and the “miR-21, miR-29a, miR-29c and miR-100 expression after gefitinib” value ([15]; PC9) was “downregulated”. The “Downregulation of miR-21, miR-29a, miR-29c and miR-100 after gefitinib” value ([15]; PC9 GR) was “not observed”.
